# Experimental data: patent US12227653B2, “Fluorinated coumarins” (3M INNOVATIVE PROPERTIES COMPANY, priority 2019, dated 2025)
# Columns and labels:
# Format in all cases: physicochemical
# [1] = Solubility Test Method in fluorinated fluids; conditions: for solubility: organic solvent or mixture, thermodynamic from solid
# Experimental: For compounds 4 and 5, a known amount of material was weighed into a scintillation vial and 1 mL of each solvent was volumetrically added followed by sonication for dissolution. For samples that completely dissolved, the formed solution was then added to additional aliquots of sample in an attempt to generate a saturated solution. […] In the case of compound 8, approximately 100 mg was suspended in 10 mL of each solvent and shaken for 1-2 h, after which the solution was filtered via syringe filter into a tared vial and the solution mass measured. The solvent was evaporated in vacuo and the mass of the remaining residue was recorded.
# These samples were repeated using less mass of Molecule 5. […] It is believed that some molecules may have a tendency to gel at high concentrations (e.g., the molecule comprises more than 50 wt % of the composition).
# UV/Vis Test Method = conditions: diluted into HFE 7200, 1 cm quartz cuvette
# Experimental: Unless otherwise mentioned, the sample was diluted into HFE 7200 and spectra were collected on an Ultraviolet-Visible (UV/Vis) spectrometer (available under the trade designation “CARY 8454” from Agilent Technologies, Inc, Santa Clara, CA) using 1 cm quartz cuvettes.
# Fluorescence Test Method = conditions: in CHCl3 instead of HFE 7200
# Experimental: Unless otherwise mentioned, the sample was diluted into HFE 7200 and spectra were collected on a fluorimeter (available under the trade designation “FLUOROLOG 3-21 HR” from Jobin-Yvon Horiba, Inc., Edison, NJ) in a 1 cm fluorescence cuvette under the following experimental parameters: • Orientation: 10 degree (front face) • EX Slit Width: 1.0 nm • EM Slit Width: 1.0 nm • EX Data Interval: 5 nm • EM Data Interval: 5 nm • EX Wavelength range: 300 nm to 500 nm • EM Wavelength range: 400 nm to 650 nm
smiles,measurement,setting,value
Cc1cc(=O)oc2cc(OCCCCCN(C)S(=O)(=O)C(F)(F)C(F)(F)C(F)(F)C(F)(F)F)ccc12 [Molecule 8],solubility,[1]; solvent HFE 7200,1570 µg/mL
same,solubility,[1]; solvent PF-5052,4070 µg/mL
same,Solubility (g/mL),[1]; solvent FC-70,Insoluble
same,wt % of solution,[1]; solvent FC-70,0 wt %
same,wt % of solution,[1]; solvent HFE 7200,0.1 wt %
same,wt % of solution,[1]; solvent PF-5052,0.2 wt %
same,λmax from the UV/Vis test,UV/Vis Test Method,320 nm
same,fluorescence emission λmax,Fluorescence Test Method,380 nm
same,fluorescence excitation λ,Fluorescence Test Method,320 nm
